Results published in ChEMBL document CHEMBL1201862, “PubChem BioAssay data set” (2004).
The source made the active and inactive calls.

Assays:
[1] = target: T1, High affinity choline transporter 1 (Homo sapiens, UniProt Q9GZV3); assay: human choline transporter blockers, potency – cell-based, 5-point CRC, membrane potential dye, dose response (AID 504840); type: functional
T1 sequence (Q9GZV3 whole entry): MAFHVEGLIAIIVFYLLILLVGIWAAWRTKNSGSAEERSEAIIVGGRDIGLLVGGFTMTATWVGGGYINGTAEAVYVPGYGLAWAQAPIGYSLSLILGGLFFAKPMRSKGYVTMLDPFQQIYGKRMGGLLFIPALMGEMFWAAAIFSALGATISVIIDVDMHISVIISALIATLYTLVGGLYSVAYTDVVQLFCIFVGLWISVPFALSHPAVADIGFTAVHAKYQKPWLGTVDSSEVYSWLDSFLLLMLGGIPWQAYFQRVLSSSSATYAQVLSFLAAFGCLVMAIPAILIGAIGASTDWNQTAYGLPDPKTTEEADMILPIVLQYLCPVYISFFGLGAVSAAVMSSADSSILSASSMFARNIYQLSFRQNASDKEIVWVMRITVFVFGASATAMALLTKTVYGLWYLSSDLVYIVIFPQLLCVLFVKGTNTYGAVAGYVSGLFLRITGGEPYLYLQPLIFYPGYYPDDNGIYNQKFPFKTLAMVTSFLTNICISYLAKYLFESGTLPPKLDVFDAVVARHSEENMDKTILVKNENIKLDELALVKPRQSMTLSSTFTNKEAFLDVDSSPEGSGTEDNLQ

[2] = target: T2, Short transient receptor potential channel 4 (Mus musculus, UniProt Q9QUQ5); assay: calcium entry via TRPC4 opening agents – cell-based, HEK293 TRPC4/mu-opioid, Fluo-4 calcium, dose response (AID 434937); type: functional
T2 sequence (Q9QUQ5 whole entry): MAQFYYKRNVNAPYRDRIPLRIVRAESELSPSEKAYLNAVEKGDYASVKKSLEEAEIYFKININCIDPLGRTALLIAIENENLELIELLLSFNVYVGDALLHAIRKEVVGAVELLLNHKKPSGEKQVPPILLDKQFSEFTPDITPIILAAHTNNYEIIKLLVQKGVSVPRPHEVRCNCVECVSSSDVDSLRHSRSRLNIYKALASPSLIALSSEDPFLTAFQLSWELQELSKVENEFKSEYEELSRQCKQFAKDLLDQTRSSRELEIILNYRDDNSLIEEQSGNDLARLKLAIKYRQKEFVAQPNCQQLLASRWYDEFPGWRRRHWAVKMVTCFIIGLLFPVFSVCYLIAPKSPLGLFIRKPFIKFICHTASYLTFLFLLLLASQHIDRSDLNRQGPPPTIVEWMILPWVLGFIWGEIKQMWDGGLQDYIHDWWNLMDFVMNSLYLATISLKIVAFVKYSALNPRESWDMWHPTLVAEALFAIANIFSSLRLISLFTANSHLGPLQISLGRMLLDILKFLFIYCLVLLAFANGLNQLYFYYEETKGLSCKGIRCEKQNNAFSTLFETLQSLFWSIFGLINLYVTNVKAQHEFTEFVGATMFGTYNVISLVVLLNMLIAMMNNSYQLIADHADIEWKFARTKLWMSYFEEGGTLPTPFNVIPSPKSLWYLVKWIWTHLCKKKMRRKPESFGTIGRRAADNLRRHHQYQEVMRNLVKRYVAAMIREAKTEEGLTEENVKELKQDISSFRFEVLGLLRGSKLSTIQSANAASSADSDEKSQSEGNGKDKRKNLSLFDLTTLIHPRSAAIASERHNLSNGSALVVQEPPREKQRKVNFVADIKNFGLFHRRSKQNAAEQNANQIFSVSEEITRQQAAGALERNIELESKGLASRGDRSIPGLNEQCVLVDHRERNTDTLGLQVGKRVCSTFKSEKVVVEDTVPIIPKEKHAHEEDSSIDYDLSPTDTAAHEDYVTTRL

[3] = NIH3T3 cell viability loss – ATP luminescence, mouse fibroblasts, counter-screen, dose response (AID 2010); type: functional, cell-based;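 also: cells exposed to compound for about 90 hours before reading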
[4] = Trypanosoma cruzi growth suppression in host cells – NIH3T3 host cells, beta-gal luminescence, confirmation (AID 2044); type: functional, cell-based;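 also: intracellular parasites grown in NIH/3T3 mouse fibroblasts as host cells; luminescent beta-galactosidase reporter signal from transgenic T. cruzi replicating inside host cells; inhibitors lower the luminescence signal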
[5] = target: T3, Heat shock factor protein 1 (Mus musculus, UniProt P38532); assay: enhancement of HSF1-driven luciferase signal – cell-based, NIH3T3, luminescence, dose retest, confirmation (AID 435004); type: functional;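 also: stress induced by proteasome inhibitor MG132 added 30 min after compound; luciferase reporter driven by HSF1 response element in NIH3T3 cells; actives raise luminescence as potentiators of the MG132 stress response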
T3 sequence (P38532 whole entry): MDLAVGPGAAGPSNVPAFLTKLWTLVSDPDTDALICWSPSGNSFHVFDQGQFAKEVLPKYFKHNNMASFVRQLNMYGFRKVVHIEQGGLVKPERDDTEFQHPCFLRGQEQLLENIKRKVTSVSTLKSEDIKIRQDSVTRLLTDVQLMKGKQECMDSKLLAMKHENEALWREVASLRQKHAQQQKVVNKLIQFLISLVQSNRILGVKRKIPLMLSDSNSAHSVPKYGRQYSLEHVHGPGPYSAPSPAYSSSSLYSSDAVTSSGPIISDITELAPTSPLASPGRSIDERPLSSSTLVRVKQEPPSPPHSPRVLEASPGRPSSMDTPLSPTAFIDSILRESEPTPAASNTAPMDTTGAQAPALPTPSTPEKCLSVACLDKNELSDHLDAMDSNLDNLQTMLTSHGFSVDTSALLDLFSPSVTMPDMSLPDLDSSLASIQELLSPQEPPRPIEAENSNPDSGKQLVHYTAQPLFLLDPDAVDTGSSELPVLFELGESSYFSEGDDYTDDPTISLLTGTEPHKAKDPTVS

[6] = blockers of HIV-1 ZM109 envelope-driven cell-cell fusion – HeLa effector, CEM target cells, luciferase, cherry-pick, dose response (AID 652058); type: functional, cell-based;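 also: luciferase signal from HIV-1 Env mediated cell-cell fusion of effector and target cells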
[7] = target: Fatty acid synthase (Homo sapiens, UniProt P49327); assay: inhibition of human FAS-TE enzyme activity – biochemical, kinetic fluorescence intensity, dose response (AID 624326); type: functional;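 also: rate of fluorescence rise from hydrolysis of a fluorogenic O-methyl fluorescein ester substrate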
Chain of Fatty acid synthase (P49327 whole entry, the tested form may be a part): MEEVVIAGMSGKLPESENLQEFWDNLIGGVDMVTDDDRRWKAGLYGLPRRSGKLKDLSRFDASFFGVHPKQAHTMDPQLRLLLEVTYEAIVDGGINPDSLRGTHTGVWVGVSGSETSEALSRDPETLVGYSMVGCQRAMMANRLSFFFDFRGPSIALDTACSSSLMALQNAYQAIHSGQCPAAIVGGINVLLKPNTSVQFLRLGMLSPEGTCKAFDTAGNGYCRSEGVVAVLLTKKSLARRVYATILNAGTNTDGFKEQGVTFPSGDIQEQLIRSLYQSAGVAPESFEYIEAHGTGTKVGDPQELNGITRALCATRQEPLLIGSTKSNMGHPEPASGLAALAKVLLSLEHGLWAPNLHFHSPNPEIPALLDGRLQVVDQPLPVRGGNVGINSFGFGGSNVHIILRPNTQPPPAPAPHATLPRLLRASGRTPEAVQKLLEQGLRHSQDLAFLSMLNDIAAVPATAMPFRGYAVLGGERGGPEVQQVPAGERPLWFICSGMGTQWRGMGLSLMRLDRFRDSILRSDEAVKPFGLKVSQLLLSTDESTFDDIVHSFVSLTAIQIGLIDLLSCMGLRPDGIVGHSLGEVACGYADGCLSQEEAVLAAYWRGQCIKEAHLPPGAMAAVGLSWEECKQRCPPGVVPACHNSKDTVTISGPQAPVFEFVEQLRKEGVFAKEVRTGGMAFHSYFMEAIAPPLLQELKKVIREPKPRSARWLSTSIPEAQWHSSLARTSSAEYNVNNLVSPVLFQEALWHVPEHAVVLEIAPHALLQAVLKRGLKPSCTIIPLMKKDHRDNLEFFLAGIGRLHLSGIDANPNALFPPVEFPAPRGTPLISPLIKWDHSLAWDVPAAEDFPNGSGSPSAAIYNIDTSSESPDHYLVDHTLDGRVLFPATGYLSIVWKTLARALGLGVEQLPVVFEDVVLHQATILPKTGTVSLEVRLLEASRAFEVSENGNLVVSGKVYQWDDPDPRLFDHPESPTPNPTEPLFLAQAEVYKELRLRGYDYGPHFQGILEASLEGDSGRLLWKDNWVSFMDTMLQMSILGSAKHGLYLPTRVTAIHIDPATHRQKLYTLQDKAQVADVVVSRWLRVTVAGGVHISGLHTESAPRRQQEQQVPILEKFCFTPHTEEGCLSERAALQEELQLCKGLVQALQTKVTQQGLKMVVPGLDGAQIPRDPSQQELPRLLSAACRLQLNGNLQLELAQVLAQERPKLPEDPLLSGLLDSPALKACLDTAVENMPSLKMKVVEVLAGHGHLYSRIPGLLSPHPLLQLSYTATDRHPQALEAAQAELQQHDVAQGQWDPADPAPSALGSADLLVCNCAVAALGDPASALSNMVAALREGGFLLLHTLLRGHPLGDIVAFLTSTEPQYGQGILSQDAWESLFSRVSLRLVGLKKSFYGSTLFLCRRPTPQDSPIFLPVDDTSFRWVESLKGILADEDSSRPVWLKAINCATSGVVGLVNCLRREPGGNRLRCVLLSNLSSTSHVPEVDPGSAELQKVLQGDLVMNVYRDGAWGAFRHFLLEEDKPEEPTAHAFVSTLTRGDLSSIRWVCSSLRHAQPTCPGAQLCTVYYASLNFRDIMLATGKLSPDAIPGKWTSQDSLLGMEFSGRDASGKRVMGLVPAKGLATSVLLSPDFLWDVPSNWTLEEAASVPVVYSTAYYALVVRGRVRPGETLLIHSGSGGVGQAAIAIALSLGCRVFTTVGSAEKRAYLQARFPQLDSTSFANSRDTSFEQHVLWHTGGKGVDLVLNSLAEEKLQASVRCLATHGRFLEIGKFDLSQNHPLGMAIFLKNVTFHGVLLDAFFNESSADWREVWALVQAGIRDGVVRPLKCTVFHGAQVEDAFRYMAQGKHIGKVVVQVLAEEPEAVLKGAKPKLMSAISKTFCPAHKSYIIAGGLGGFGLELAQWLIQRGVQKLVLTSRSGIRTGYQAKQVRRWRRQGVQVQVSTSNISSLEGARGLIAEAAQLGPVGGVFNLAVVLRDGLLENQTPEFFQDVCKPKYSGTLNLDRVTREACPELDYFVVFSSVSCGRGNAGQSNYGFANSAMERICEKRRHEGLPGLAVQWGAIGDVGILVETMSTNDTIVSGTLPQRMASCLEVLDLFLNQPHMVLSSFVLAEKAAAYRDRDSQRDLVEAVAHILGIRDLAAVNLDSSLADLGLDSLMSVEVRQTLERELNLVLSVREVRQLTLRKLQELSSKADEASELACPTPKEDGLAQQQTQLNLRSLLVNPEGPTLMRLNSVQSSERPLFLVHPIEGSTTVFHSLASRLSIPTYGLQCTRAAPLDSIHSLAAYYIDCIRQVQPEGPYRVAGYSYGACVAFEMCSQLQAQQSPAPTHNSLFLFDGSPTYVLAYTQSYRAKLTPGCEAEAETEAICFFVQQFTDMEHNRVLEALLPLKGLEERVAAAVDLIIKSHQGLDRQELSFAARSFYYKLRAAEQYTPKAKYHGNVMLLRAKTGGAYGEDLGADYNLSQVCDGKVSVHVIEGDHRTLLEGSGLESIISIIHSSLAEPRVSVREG

[8] = HIV-1 AD8 envelope cell-cell fusion blockers – cherry-pick, dose response (AID 652062); type: functional, cell-based;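 also: luciferase signal from cell-cell fusion driven by HIV-1 clade B AD8 Env; potency is for inhibitors of fusion seen as a drop in luminescence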
[9] = tested on: Streptococcus sp. 'group A'; assay: Streptococcus pyogenes SK(-)GAS viability under kanamycin – luminescence, BacTiterGlo, confirmation, counter-screen for streptokinase expression inhibitor project, dose response (AID 1900); type: functional, organism-based
[10] = tested on: Streptococcus; assay: GAS UMAA2166 growth inhibition – luminescence, BacTiterGlo, counter-screen for streptokinase expression inhibitor project, dose response (AID 1915); type: functional, organism-based;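 also: potency for reduction of bacterial viability or growth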
[11] = target: T4, Streptokinase A (Streptococcus pyogenes serotype M1, UniProt P10520); assay: viability-normalized secreted streptokinase activity reduction – plasminogen activation absorbance, OD405, dose response (AID 1914); type: functional, Streptococcus pyogenes M1 GAS;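 also: secreted streptokinase activity via plasminogen activation per viability signal from cell pellet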
T4 sequence (P10520 whole entry): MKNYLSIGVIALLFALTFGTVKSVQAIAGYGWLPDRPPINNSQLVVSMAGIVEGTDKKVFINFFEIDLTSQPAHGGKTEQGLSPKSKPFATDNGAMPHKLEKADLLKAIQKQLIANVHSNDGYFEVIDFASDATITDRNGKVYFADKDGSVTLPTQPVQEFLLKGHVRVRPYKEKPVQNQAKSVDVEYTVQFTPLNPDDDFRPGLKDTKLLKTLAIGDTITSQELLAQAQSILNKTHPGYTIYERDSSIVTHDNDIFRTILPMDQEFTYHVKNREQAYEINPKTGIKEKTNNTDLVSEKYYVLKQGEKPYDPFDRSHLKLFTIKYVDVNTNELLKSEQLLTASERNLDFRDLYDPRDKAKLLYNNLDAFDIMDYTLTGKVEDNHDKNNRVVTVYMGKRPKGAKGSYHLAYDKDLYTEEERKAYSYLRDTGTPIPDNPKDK

[12] = tested on: INS1; assay: INS-1E survival protection against cytokine death – cell-based, luminescence, retest, dose response (AID 449756); type: functional; settings: Rattus norvegicus;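 also: cell death triggered by IL-1 beta plus TNF-alpha plus IFN-gamma mixture; protective hits raise ATP signal compared with cytokine alone wells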
[13] = Luminescence Cell-Based Dose Confirmation HTS to Identify Activators of 5'UTR Stem-Loop Driven Alpha-Synuclein mRNA Translation in H4 Neuroglioblastoma Cells. [Related pubchem assays: 1829 (Project Summary), 1814 (Primary HTS)]; type: functional
[14] = tested on: H4; assay: Luminescence Cell-Based Dose Response HTS to Identify Activators of 5'UTR Stem-Loop Driven Prion Protein mRNA Translation in H4 Neuroglioblastoma Cells. [Related pubchem assays: 1829 (Project Summary), 1814 (Primary HTS)]; type: functional; settings: Homo sapiens
[15] = Luminescence Cell-Based Dose Response HTS to Identify Activators of Luciferase Translation or Activity in H4 […] Cells. [Related pubchem assays: 1829 (Project Summary), 1814 (Primary HTS)]; type: functional
[16] = target: T5, Corticotropin-releasing factor receptor 2/Corticotropin-releasing factor-binding protein (Homo sapiens, UniProt P24387+Q13324); assay: activators of CRF receptor 2 with binding protein – uHTS hits, confirmation (AID 602473); type: functional; settings: read-out: EC50_Mean
T5 sequence (Q13324 whole entry): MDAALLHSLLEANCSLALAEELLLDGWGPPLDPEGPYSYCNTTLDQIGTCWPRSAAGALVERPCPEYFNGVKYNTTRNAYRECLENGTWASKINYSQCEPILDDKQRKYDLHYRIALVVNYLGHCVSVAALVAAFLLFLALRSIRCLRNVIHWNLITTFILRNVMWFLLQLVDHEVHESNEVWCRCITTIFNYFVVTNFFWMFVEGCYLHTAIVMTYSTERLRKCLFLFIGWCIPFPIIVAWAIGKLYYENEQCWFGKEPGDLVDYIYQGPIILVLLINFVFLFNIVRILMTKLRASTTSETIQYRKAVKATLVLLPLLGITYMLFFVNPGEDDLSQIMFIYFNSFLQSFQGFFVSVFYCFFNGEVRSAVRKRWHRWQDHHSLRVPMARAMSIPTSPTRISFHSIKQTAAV
T5 sequence (P24387 whole entry): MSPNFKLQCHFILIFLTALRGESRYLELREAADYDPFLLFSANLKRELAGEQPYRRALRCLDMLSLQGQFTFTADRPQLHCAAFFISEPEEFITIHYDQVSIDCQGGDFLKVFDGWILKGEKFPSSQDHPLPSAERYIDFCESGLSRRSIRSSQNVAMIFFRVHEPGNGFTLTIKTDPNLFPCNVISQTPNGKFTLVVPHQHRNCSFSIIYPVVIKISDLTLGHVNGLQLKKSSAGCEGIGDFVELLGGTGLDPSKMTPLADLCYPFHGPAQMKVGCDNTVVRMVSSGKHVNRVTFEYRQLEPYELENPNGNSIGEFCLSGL

[17] = target: FAD-linked sulfhydryl oxidase ALR (Homo sapiens, UniProt P55789); assay: ALR-catalysed DTT oxidation blockers – biochemical, H2O2 detection, luminescence, cherry-pick, dose response (AID 493248)
Chain of FAD-linked sulfhydryl oxidase ALR (P55789 whole entry): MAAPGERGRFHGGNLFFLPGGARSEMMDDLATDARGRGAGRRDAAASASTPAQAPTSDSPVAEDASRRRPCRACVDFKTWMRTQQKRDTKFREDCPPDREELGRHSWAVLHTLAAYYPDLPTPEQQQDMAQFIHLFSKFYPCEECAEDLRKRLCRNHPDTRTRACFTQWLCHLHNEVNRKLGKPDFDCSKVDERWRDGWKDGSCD

## Cc1ccc(C(=O)Nc2ccc(S(=O)(=O)NC3=NCCCCC3)cc2)c(C)c1
[1]
  IC50: 10.8 µM (active)

## Cc1noc(C)c1S(=O)(=O)N1CCC(C(=O)NCCCN2CC(C)CC(C)C2)CC1 (stereo not given)
[2]
  EC50: 0.473 µM (active)

## C=C(C)CN(CC)c1nc(N)c2c(N)nc3c(c2c1C#N)CC(=O)N3C12CC3CC(CC(C3)C1)C2
[3]
  EC50: > 60 µM (not active)
[4]
  EC50: 1.69 µM (active)
[5]
  EC50: > 260 µM (inactive)
[6]
  AC50: 7.36 µM (active)

## CCCc1cc(C(=O)Nc2cccc([N+](=O)[O-])c2)cs1
[7]
  IC50: 8.66 µM (active)

## CCCNC(=O)N1[C@H](C#N)[C@H](c2ccc(-c3ccc(C(=O)N(C)C)cc3)cc2)[C@@H]1CO
[6]
  AC50: 32.8 µM (active)
[8]
  AC50: 0.784 µM (active)

## O=C(NC(=S)NNC(=O)c1ccccc1[N+](=O)[O-])c1ccc(Br)cc1
[9]
  EC50: 4.24 µM (active)
[10]
  EC50: 11.6 µM (active)
[11]
  EC50: > 150 µM (not active)
[2]
  EC50: 11.9 µM (active)

## CCn1c(N2CCN(CC(=O)Nc3cccc(C)c3C)CC2)nc2ccccc21
[2]
  EC50: 2.11 µM (active)

## c1ccc2c(CN3CCCCCCC3)c[nH]c2c1
[12]
  AC50: 4.22 µM (active)
[3]
  EC50: > 30 µM (not active)
[4]
  EC50: 1.15 µM (active)
[1]
  IC50: 12.6 µM (active)

## CC(C)N(C)CCOC(=O)C1COc2ccccc2O1 (stereo not given)
[1]
  IC50: 13.8 µM (active)

## O=C(CSc1nc2ccccc2[nH]1)c1ccc2c(c1)OCO2
[1]
  IC50: 10 µM (active)

## CCN(CC(=O)Nc1cccc(OC)c1)c1ncnc2sc(C)c(C)c12
[1]
  IC50: 7.24 µM (active)

## CN(C)CCN(C(=O)c1cccc2ccccc12)c1nc2cc3c(cc2s1)OCO3
[2]
  EC50: 5.96 µM (active)

## CCCc1cc(Nc2c(C)n(C)n(-c3ccccc3)c2=O)n2c(nc3ccccc32)c1C#N
[1]
  IC50: 13.8 µM (active)

## COc1ccccc1Nc1ncnc2ccc(C)cc12
[1]
  IC50: 13.8 µM (active)

## CCOc1ncccc1C(=O)NCC(c1ccccc1)N(C)C (stereo not given)
[2]
  EC50: 1.19 µM (active)

## O=C(c1cc2c(nc1O)CCCC2)N1CCc2c([nH]c3ccccc23)C1c1ccccc1F (stereo not given)
[1]
  IC50: 19.1 µM (active)

## Cc1ccc2nc3c(O)n(CCc4c[nH]cn4)cnc-3c2c1
[2]
  EC50: 1.88 µM (active)

## Cc1ccc(Nc2nc(CSc3nnc(-c4ccc(F)cc4)n3C)cs2)cc1
[13]
  EC50: 17.2 µM (active)
[14]
  EC50: 15 µM (active)
[1]
  IC50: 15.8 µM (active)
[15]
  EC50: 16.9 µM (active)

## Cn1c2ccccc2c(=O)c2c(=O)n(C3CCCCC3)c(-c3ccco3)nc21
[16]
  EC50: 8.22 µM (active)
[2]
  EC50: 4.73 µM (active)

## Sc1n[nH]c(-c2cc(Cl)cc(Cl)c2)n1
[17]
  AC50: 1.72 µM (active)
[1]
  IC50: 10.5 µM (active)
